Consider 14 molecules from US9732119B2, “Immunomodulators” (BRISTOL-MYERS SQUIBB COMPANY, priority 2014, dated 2017).

The assay addresses T1, PD-1-Ig binding to PD-L1-TVMV-His (PD-L1-His) (Homo sapiens, UniProt Q9NZQ7).
T1 construct: hPDL1(19-239)-TVMV-His; made in house; host or cells: HEK293T cells
The assay is described as follows: PD-1/PD-L1 Homogenous Time-Resolved Fluorescence (HTRF) binding assay. To be noted: PD-1-Ig (20 nM) / PD-L1-His (10 nM). A digest of the protocol:
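HTRF competition: compound pre-incubated 15 min with PD-L1-His (10 nM final), then PD-1-Ig (20 nM final) added for 15 min in dPBS, 0.1% BSA, 0.05% Tween-20. Detection with Eu-cryptate anti-Ig (1 nM) and APC anti-His (20 nM) antibodies.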

By IC50 is commonly meant the concentration that gives 50% inhibition. Read a low IC50 as higher potency.

Positions of bridges follow the written chain, without caps; N, C: chain ends. Non-standard residues stand in square brackets, D forms with d. Residues, ends and D or L forms follow the SMILES beside them. Trp(1-CH2COOH) = N[C@@H](Cc1cn(CC(=O)O)c2ccccc12)C(=O)O; Phe(4-Cl) = N[C@@H](Cc1ccc(Cl)cc1)C(=O)O; Phe(4-F) = N[C@@H](Cc1ccc(F)cc1)C(=O)O; Phe(4-Me) = Cc1ccc(C[C@H](N)C(=O)O)cc1; Hyp = O=C(O)[C@@H]1C[C@@H](O)CN1; Aad = N[C@@H](CCCC(=O)O)C(=O)O; NMeNle = CCCC[C@H](NC)C(=O)O; dOrn = NCCC[C@@H](N)C(=O)O; Pip = O=C(O)[C@@H]1CCCCN1; Dab = NCC[C@H](N)C(=O)O; Dap = NC[C@H](N)C(=O)O

T1 sequence (Q9NZQ7 with tags, fused parts or gaps): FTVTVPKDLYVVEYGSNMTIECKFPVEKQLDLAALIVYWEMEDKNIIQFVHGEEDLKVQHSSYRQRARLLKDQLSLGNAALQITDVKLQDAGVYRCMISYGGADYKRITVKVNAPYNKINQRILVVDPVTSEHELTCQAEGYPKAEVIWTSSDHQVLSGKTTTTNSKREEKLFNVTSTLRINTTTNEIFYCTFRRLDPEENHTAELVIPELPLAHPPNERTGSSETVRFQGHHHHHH

The molecule `CCCC[C@H]1C(=O)N(C)[C@@H](CCCC)C(=O)N[C@@H](CC(C)C)C(=O)N[C@H](C(N)=O)CCCC(=O)N[C@@H](Cc2ccc(Cl)cc2)C(=O)N2CCCC[C@H]2C(=O)N[C@@H](CC(=O)O)C(=O)N2CCC[C@H]2C(=O)N[C@@H](CN)C(=O)N[C@@H](CC(C)C)C(=O)N2C[C@H](O)C[C@H]2C(=O)N[C@@H](Cc2c[nH]c3ccccc23)C(=O)N[C@@H](CCN)C(=O)N[C@@H](Cc2cn(CC(=O)O)c3ccccc23)C(=O)N1C` [Example 10556] ([Phe(4-Cl)][Pip]DP[Dap]L[Hyp]W[Dab][Trp(1-CH2COOH)][NMeNle][NMeNle]L[Aad]-NH2; lactam N-14) yielded an IC50 (range classes) of 1 to 9.9 nM.

As for `CCCC[C@H]1C(=O)N(C)[C@@H](CCCC)C(=O)N[C@@H](CCC(=O)O)C(=O)N[C@H](C(N)=O)CCCC(=O)N[C@@H](Cc2ccc(Cl)cc2)C(=O)N2CCCC[C@H]2C(=O)N[C@@H](CC(N)=O)C(=O)N2CCC[C@H]2C(=O)N[C@@H](CN)C(=O)N[C@@H](CC(C)C)C(=O)N2C[C@H](O)C[C@H]2C(=O)N[C@@H](Cc2c[nH]c3ccccc23)C(=O)N[C@@H](CCN)C(=O)N[C@@H](Cc2cn(CC(=O)O)c3ccccc23)C(=O)N1C` [Example 10557] ([Phe(4-Cl)][Pip]NP[Dap]L[Hyp]W[Dab][Trp(1-CH2COOH)][NMeNle][NMeNle]E[Aad]-NH2; lactam N-14), the concentration for half-maximal inhibition (IC50) (range classes) is 1 to 9.9 nM.

On to `CCCC[C@H]1C(=O)N(C)[C@@H](CCCC)C(=O)N[C@@H](CC(C)C)C(=O)NCCC[C@@H](N)C(=O)N[C@@H](Cc2ccc(O)cc2)C(=O)N2CCCC[C@H]2C(=O)N[C@@H](CC(N)=O)C(=O)N2CCC[C@H]2C(=O)N[C@@H](CN)C(=O)N[C@@H](CC(C)C)C(=O)N2C[C@H](O)C[C@H]2C(=O)N[C@@H](Cc2c[nH]c3ccccc23)C(=O)N[C@@H](CCN)C(=O)N[C@@H](Cc2cn(CC(=O)O)c3ccccc23)C(=O)N1C` [Example 10558] (H-[dOrn]Y[Pip]NP[Dap]L[Hyp]W[Dab][Trp(1-CH2COOH)][NMeNle][NMeNle]L; lactam 1-C), for which the IC50 (range classes) was 10 to 99 nM.

With `CCCC[C@H]1C(=O)N(C)[C@@H](CCCC)C(=O)N[C@@H](CC(C)C)C(=O)NCCC[C@@H](N)C(=O)N[C@@H](Cc2ccc(Cl)cc2)C(=O)N2CCCC[C@H]2C(=O)N[C@@H](CC(N)=O)C(=O)N2CCC[C@H]2C(=O)N[C@@H](CN)C(=O)N[C@@H](CC(C)C)C(=O)N2C[C@H](O)C[C@H]2C(=O)N[C@@H](Cc2c[nH]c3ccccc23)C(=O)N[C@@H](CCN)C(=O)N[C@@H](Cc2cn(CC(=O)O)c3ccccc23)C(=O)N1C` [Example 10559] (H-[dOrn][Phe(4-Cl)][Pip]NP[Dap]L[Hyp]W[Dab][Trp(1-CH2COOH)][NMeNle][NMeNle]L; lactam 1-C), under “range classes”, the half-maximal inhibitory concentration (IC50) was 10 to 99 nM.

In turn, `CCCC[C@H]1C(=O)N(C)[C@@H](CCCC)C(=O)N[C@@H](CC(C)C)C(=O)NCCC[C@@H](N)C(=O)N[C@@H](Cc2ccc(C)cc2)C(=O)N2CCCC[C@H]2C(=O)N[C@@H](CC(N)=O)C(=O)N2CCC[C@H]2C(=O)N[C@@H](CN)C(=O)N[C@@H](CCC(=O)O)C(=O)N2C[C@H](O)C[C@H]2C(=O)N[C@@H](Cc2c[nH]c3ccccc23)C(=O)N[C@@H](CCN)C(=O)N[C@@H](Cc2cn(CC(=O)O)c3ccccc23)C(=O)N1C` [Example 10560] (H-[dOrn][Phe(4-Me)][Pip]NP[Dap]E[Hyp]W[Dab][Trp(1-CH2COOH)][NMeNle][NMeNle]L; lactam 1-C) registered an IC50 (range classes) of 10 to 99 nM.

`CCCC[C@H]1C(=O)N(C)[C@@H](CCCC)C(=O)N[C@@H](CCC(=O)O)C(=O)N[C@H](C(N)=O)CCCC(=O)N[C@@H](Cc2ccc(O)cc2)C(=O)N2CCCC[C@H]2C(=O)N[C@@H](CC(N)=O)C(=O)N2CCC[C@H]2C(=O)N[C@@H](CN)C(=O)N[C@@H](CC(C)C)C(=O)N2C[C@H](O)C[C@H]2C(=O)N[C@@H](Cc2c[nH]c3ccccc23)C(=O)N[C@@H](CCN)C(=O)N[C@@H](Cc2cn(CC(=O)O)c3ccccc23)C(=O)N1C` [Example 10561] (Y[Pip]NP[Dap]L[Hyp]W[Dab][Trp(1-CH2COOH)][NMeNle][NMeNle]E[Aad]-NH2; lactam N-14): the half-inhibitory concentration (IC50) (range classes) fell in the range of 1 to 9.9 nM.

Consider `CCCC[C@H]1C(=O)N(C)[C@@H](CCCC)C(=O)N[C@@H](CCC(=O)O)C(=O)N[C@H](C(N)=O)CCCC(=O)N[C@@H](Cc2ccc(C)cc2)C(=O)N2CCCC[C@H]2C(=O)N[C@@H](CC(N)=O)C(=O)N2CCC[C@H]2C(=O)N[C@@H](CN)C(=O)N[C@@H](CC(C)C)C(=O)N2C[C@H](O)C[C@H]2C(=O)N[C@@H](Cc2c[nH]c3ccccc23)C(=O)N[C@@H](CCN)C(=O)N[C@@H](Cc2cn(CC(=O)O)c3ccccc23)C(=O)N1C` [Example 10562] ([Phe(4-Me)][Pip]NP[Dap]L[Hyp]W[Dab][Trp(1-CH2COOH)][NMeNle][NMeNle]E[Aad]-NH2; lactam N-14), for which the IC50 (range classes) lay in the range of 10 to 99 nM.

The molecule `CCCC[C@H]1C(=O)N(C)[C@@H](CCCC)C(=O)N[C@@H](CCC(=O)O)C(=O)N[C@H](C(N)=O)CCCC(=O)N[C@@H](Cc2ccc(OC)cc2)C(=O)N2CCCC[C@H]2C(=O)N[C@@H](CC(N)=O)C(=O)N2CCC[C@H]2C(=O)N[C@@H](CN)C(=O)N[C@@H](CC(C)C)C(=O)N2C[C@H](O)C[C@H]2C(=O)N[C@@H](Cc2c[nH]c3ccccc23)C(=O)N[C@@H](CCN)C(=O)N[C@@H](Cc2cn(CC(=O)O)c3ccccc23)C(=O)N1C` [Example 10563] (Y(Me)[Pip]NP[Dap]L[Hyp]W[Dab][Trp(1-CH2COOH)][NMeNle][NMeNle]E[Aad]-NH2; lactam N-14) gave a concentration for half-maximal inhibition (IC50) (range classes) of 1 to 9.9 nM.

For the setting “range classes”, `CCCC[C@H]1C(=O)N(C)[C@@H](CCCC)C(=O)N[C@@H](CCC(=O)O)C(=O)N[C@H](C(N)=O)CCCC(=O)N[C@@H](Cc2ccc(F)cc2)C(=O)N2CCCC[C@H]2C(=O)N[C@@H](CC(N)=O)C(=O)N2CCC[C@H]2C(=O)N[C@@H](CN)C(=O)N[C@@H](CC(C)C)C(=O)N2C[C@H](O)C[C@H]2C(=O)N[C@@H](Cc2c[nH]c3ccccc23)C(=O)N[C@@H](CCN)C(=O)N[C@@H](Cc2cn(CC(=O)O)c3ccccc23)C(=O)N1C` [Example 10564] ([Phe(4-F)][Pip]NP[Dap]L[Hyp]W[Dab][Trp(1-CH2COOH)][NMeNle][NMeNle]E[Aad]-NH2; lactam N-14) yielded an IC50 of 10 to 99 nM.

In the case of `CCCC[C@H]1C(=O)N(C)[C@@H](CCCC)C(=O)N[C@@H](CC(C)C)C(=O)NCCC[C@@H](N)C(=O)N[C@@H](Cc2ccc(F)cc2)C(=O)N2CCCC[C@H]2C(=O)N[C@@H](CC(N)=O)C(=O)N2CCC[C@H]2C(=O)N[C@@H](CN)C(=O)N[C@@H](CC(C)C)C(=O)N2C[C@H](O)C[C@H]2C(=O)N[C@@H](Cc2c[nH]c3ccccc23)C(=O)N[C@@H](CCN)C(=O)N[C@@H](Cc2cn(CC(=O)O)c3ccccc23)C(=O)N1C` [Example 10566] (H-[dOrn][Phe(4-F)][Pip]NP[Dap]L[Hyp]W[Dab][Trp(1-CH2COOH)][NMeNle][NMeNle]L; lactam 1-C), the IC50 (range classes) is 1 to 9.9 nM.

Under “range classes”, `CCCC[C@H]1C(=O)N(C)[C@@H](CCCC)C(=O)N[C@@H](CC(C)C)C(=O)NCCC[C@@H](N)C(=O)N[C@@H](Cc2ccc(C)cc2)C(=O)N2CCCC[C@H]2C(=O)N[C@@H](CC(N)=O)C(=O)N2CCC[C@H]2C(=O)N[C@@H](CN)C(=O)N[C@@H](CC(C)C)C(=O)N2C[C@H](O)C[C@H]2C(=O)N[C@@H](Cc2c[nH]c3ccccc23)C(=O)N[C@@H](CCN)C(=O)N[C@@H](Cc2cn(CC(=O)O)c3ccccc23)C(=O)N1C` [Example 10567] (H-[dOrn][Phe(4-Me)][Pip]NP[Dap]L[Hyp]W[Dab][Trp(1-CH2COOH)][NMeNle][NMeNle]L; lactam 1-C) displayed an IC50 of 10 to 99 nM.

For the molecule `CCCC[C@H]1C(=O)N(C)[C@@H](CCCC)C(=O)N[C@@H](CC(C)C)C(=O)NCCC[C@@H](N)C(=O)N[C@@H](Cc2ccc(O)cc2)C(=O)N2CCCC[C@H]2C(=O)N[C@@H](CC(N)=O)C(=O)N2CCC[C@H]2C(=O)N[C@@H](CN)C(=O)N[C@@H](CCC(=O)O)C(=O)N2C[C@H](O)C[C@H]2C(=O)N[C@@H](Cc2c[nH]c3ccccc23)C(=O)N[C@@H](CCN)C(=O)N[C@@H](Cc2cn(CC(=O)O)c3ccccc23)C(=O)N1C` [Example 10568] (H-[dOrn]Y[Pip]NP[Dap]E[Hyp]W[Dab][Trp(1-CH2COOH)][NMeNle][NMeNle]L; lactam 1-C), the IC50 (range classes) lay within 1 to 9.9 nM.

As to `CCCC[C@H]1C(=O)N(C)[C@@H](CCCC)C(=O)N[C@@H](CC(C)C)C(=O)NCCC[C@@H](N)C(=O)N[C@@H](Cc2ccc(OC)cc2)C(=O)N2CCCC[C@H]2C(=O)N[C@@H](CC(N)=O)C(=O)N2CCC[C@H]2C(=O)N[C@@H](CN)C(=O)N[C@@H](CCC(=O)O)C(=O)N2C[C@H](O)C[C@H]2C(=O)N[C@@H](Cc2c[nH]c3ccccc23)C(=O)N[C@@H](CCN)C(=O)N[C@@H](Cc2cn(CC(=O)O)c3ccccc23)C(=O)N1C` [Example 10569] (H-[dOrn]Y(Me)[Pip]NP[Dap]E[Hyp]W[Dab][Trp(1-CH2COOH)][NMeNle][NMeNle]L; lactam 1-C), the IC50 (range classes) was 1 to 9.9 nM.

In the case of `CCCC[C@H]1C(=O)N(C)[C@@H](CCCC)C(=O)N[C@@H](CC(C)C)C(=O)NCCC[C@@H](N)C(=O)N[C@@H](Cc2ccc(F)cc2)C(=O)N2CCCC[C@H]2C(=O)N[C@@H](CC(N)=O)C(=O)N2CCC[C@H]2C(=O)N[C@@H](CN)C(=O)N[C@@H](CCC(=O)O)C(=O)N2C[C@H](O)C[C@H]2C(=O)N[C@@H](Cc2c[nH]c3ccccc23)C(=O)N[C@@H](CCN)C(=O)N[C@@H](Cc2cn(CC(=O)O)c3ccccc23)C(=O)N1C` [Example 10570] (H-[dOrn][Phe(4-F)][Pip]NP[Dap]E[Hyp]W[Dab][Trp(1-CH2COOH)][NMeNle][NMeNle]L; lactam 1-C), the IC50 (numeric values) amounted to 12 nM.
